Data from patent US11821027B2, “Epigenetic analysis of cell therapy and related methods” (Juno Therapeutics, Inc., priority 2017, dated 2023).

Experiments:
[1] = tested on: Anti-BCMA CAR-expressing T cells; assay: RNA-seq gene expression in stimulated anti-BCMA CAR T cells in the presence or absence of lenalidomide; type: cell-based
Protocol: (§1) Anti-BCMA CAR-expressing T cells, generated from four (4) different independent donors, were stimulated with 50 μg/mL BCMA-conjugated beads for 24 hours (24 hr+stim) or 7 days (d7+stim), or cultured without stimulation for 24 hours (24 hr), in the presence or absence of lenalidomide. The CAR-expressing cells were assessed by RNA sequencing (RNA-seq) for gene expression and assayed for transposase-accessible chromatin using sequencing (ATAC-seq) for chromatin accessibility analysis.
(§2) RNA-seq was performed on the complementary DNA (cDNA) samples prepared from the RNA isolated from the cultured anti-BCMA CAR-expressing cells. ATAC-seq was performed generally as described in Buenrostro et al., Nat Methods. (2013) 10(12): 1213-1218. […]
(§3) Principal component analysis (PCA) was performed for the RNA-seq and ATAC-seq data sets, generated from DESeq2-normalized counts. Differential expression (DE, for RNA-seq) or consensus peak accessibility (DA, for ATAC-seq) were calculated, modeling donor effects (Donors 1-4) and treatment effects (lenalidomide vs. vehicle) at 24 hours and day 7. […] Gene ontology (GO) enrichment analysis was performed and activation z-score was determined on the subset of genes differentially expressed at q≤0.1 using Ingenuity Pathway Analysis software (Qiagen, Inc.), accounting for donor effects within each treatment condition.

[2] = tested on: Anti-BCMA CAR-expressing T cells; assay: ATAC-seq chromatin accessibility in stimulated anti-BCMA CAR T cells in the presence or absence of lenalidomide; type: cell-based
Protocol: as §1, §2, §3

Nc1cccc2c1CN(C1CCC(=O)NC1=O)C2=O (stereo not shown) [lenalidomide]
effect on biological signaling pathways (differentially expressed genes) ([1]; 24 hours or 7 days with stimulation, Ingenuity Pathway Analysis): increased expression of genes involved in T cell activation and signaling
total genes altered as shown by gene expression changes ([1]; 7 days of culture with BCMA-conjugated bead stimulation, lenalidomide vs. vehicle, 4 donors, cut off q≤0.05 and log 2 fold change≥0.5): 583 genes
chromatin accessibility peaks changed ([2]; 7 days of culture with BCMA-conjugated bead stimulation, lenalidomide vs. vehicle, 4 donors, cut off q≤0.1): 2804 peaks
motif enrichment analysis of peaks (transcription factor binding motifs of T cell activation and signaling) ([2]; day 7 cultures with stimulation, HOMER, consensus peakset as background): enriched in peaks with increased accessibility
